Source: paper PMC11345766, “Computational Design of Pore-Forming Peptides with Potent Antimicrobial and Anticancer Activities” (Journal of Medicinal Chemistry, 2024)
Where “and” joins values, the source holds several entries; their conditions need not be identical. Equal entries are not always repeated. Ends that are not written are not given here.

What was measured:
[1] = Calcein dye leakage assay from LUVs; format: biochemical; conditions: P:L 1:100; pH 7.4
Summary of the method: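 POPC:POPG (1:1) LUVs, extruded at 100 nm, loaded with 35 mM self-quenching calcein; free dye removed. Peptide 0.1 mM and LUVs 0.02 mM in PBS with 100 mM NaCl, P:L 1:100 to 1:10. Fluorescence at 495/520 nm, normalized to 100% leakage by 10% Triton X-100.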

[2] = test system: A. baumannii (ATCC 19606); assay: Neutropenic murine deep thigh infection model; format: in vivo, mouse; conditions: single intraperitoneal dose at 10 times the MIC; four days after treatment
Text: Mice were euthanized 4 days postinfection (day 8).
Each experimental group comprised three mice.

S. carnosus (CCM 4838T) = assay: microbe, parasite or virus in culture; format: cell-based, Staphylococcus carnosus; conditions: CCM 4838, 24 h; read-out: Antimicrobial activity (MIC) S. carnosus (CCM 4838T)
Summary of the method: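 Bacteria were grown on MHA for 24 h, subcultured in MHB for 6 h at 37 °C and diluted to 10^6 CFU/mL. Compounds were serially diluted from 50 to 0.1 μM, inoculated and incubated for 24 h at 37 °C. MIC was the lowest concentration with no visible turbidity.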

[3] = test system: cytoplasmic membranes of ESKAPEE pathogens; assay: Cytoplasmic membrane depolarization assay, DiSC3-(5); format: cell-based; conditions: both Gram-negative and Gram-positive bacteria; peptides at their MICs
Protocol: First, we investigated the ability of the peptides to depolarize the cytoplasmic membranes of ESKAPEE pathogens. […] Bacteria were incubated with 3,3′-dipropylthiadicarbocyanine iodide [DiSC3-(5)] dye, and the dye fluorescence was measured after peptide treatment. DiSC3-(5) is sensitive to transmembrane potential changes. It accumulates in the cytoplasmic membrane with quenched fluorescence, and when the membrane potential becomes unbalanced, the dye molecules translocate to the outside environment, resulting in increased fluorescence.[56] The three potent AMPs (LP1, LP18, and LP28) and the H-variant (LP40) depolarized the cytoplasmic membrane of both Gram-negative and Gram-positive bacteria at their MICs.
The cytoplasmic membrane depolarization activity of the peptides was determined by measuring the fluorescence of membrane-potential-sensitive dye DiSC3-(5). A. baumannii ATCC 19606, E. coli ATCC 11775, K. pneumoniae ATCC 13883, P. aeruginosa PAO1, S. aureus ATCC 12600, and E. faecium ATCC 700221 were grown to mid log phase (OD600 = 0.5) at 37 °C and then centrifuged (10,000 rpm at 4 °C for 10 min). Cells were washed twice with a buffer containing 20 mM glucose and 5 mM HEPES (pH 7.2) and diluted 1:10 (OD600 = 0.05) in a buffer with 0.1 M KCl, […], and 5 mM HEPES (pH 7.2). Fluorescence was recorded at the excitation and emission wavelengths of 622 and 670 nm, respectively. Bacterial solution (100 μL) was incubated for 15 min with 20 nM of DiSC3-(5) until fluorescence reached a plateau. Changes in transmembrane potential were monitored by observing the difference in fluorescence emission intensity after adding peptides (100 μL at their MICs) for 45 min. Assay was performed in triplicate.

Substance | Calcein leakage (%) from LUVs at P:L 1:100 (mol/mol) [1] | Reduction of bacterial load [2] | MIC (S. carnosus (CCM 4838T)) [µM] | Depolarization of the cytoplasmic membrane [3]
H-HHHHLKKILKKLFQFINQLDNQLQDIHHHH-OH [LP40] | 102.5 ± 1.2% | did not significantly reduce the bacterial load | > 50 | depolarized
KKKKLKKILKKLFQFINQLDNQLQDIKKKK-NH2 [LP18] | 93.7 ± 3.1% | did not significantly reduce the bacterial load | 0.2 | depolarized
KKKKLKKILKKLFQFINQLDNQLQDIKQNK-NH2 [LP1] | 87% and 87.1 ± 2.7% | two to three orders of magnitude | 0.8 | depolarized
